Experimental data: paper PMC4882559, “Novel Azetidine-Containing TZT-1027 Analogues as Antitumor Agents” (Marine Drugs, 2016)
In brackets after ≈: the same amount, converted by molar mass. Entries after “also recorded” stand apart in the source; their conditions may differ.

Key:
[1] = Solubility of 1a; format: physicochemical
[2] = system: Human A549 xenograft; assay: In vivo efficacy study, A549 xenograft model; parameters: species or system BALB/c athymic mice; conditions: for Tumor volume: n = 6, mean (SD on next line); for Relative tumor volume: RTV = Vt/V0, n = 6, mean ± SD
From the text: Pathogen-free, 4–6 week-old, female BALB/c athymic mice (Shanghai SCXK Laboratory Animal Technology Co. Ltd., Shanghai, China) were housed under sterile conditions. Human A549 xenograft was established in the right flanks of athymic mice according to the protocol of the National Cancer Institute. When the tumor reached a volume of 100 mm^3, the mice were randomly assigned into control (n = 6 per group) and treatment groups (n = 6 per group). Control group were given lactate buffer, and treatment groups were iv administered with tested compounds. The size of tumor was measured individually on the indicated days. Tumor volume (V) was calculated as V = (length × width^2)/2. The individual relative tumor volume (RTV) was calculated as follows: RTV = Vt/V0, where Vt represented the last tumor size measurement and V0 represented the pre-dosing tumor size measurement. The animal experimental protocols were approved by the Animal Ethics Committee of School of Pharmacy, Fudan University and the mice were treated in accordance with international animal ethics guidelines.

[3] = Liver microsomes metabolic stability, human
[4] = Liver microsomes metabolic stability, rat
[5] = system: HCT116 human colon cancer cells; assay: Cancer cell proliferation inhibition (MTT assay), HCT116; format: cell-based; conditions: 72 h incubation, mean ± SD of at least three independent experiments
Description: The following cell lines were used for the screening stage, obtained from American Type Culture Collection (ATCC, Manassas, VA, USA); HCT116 human colon cancer cells and A549 human lung carcinoma cell lines were cultured in RPMI 1640 medium supplemented with 10% FBS. Cell cultures were maintained in a humidified atmosphere of 5% CO2 at 37 °C. Cells were seeded at 2000 cells per well in 96-well plates in a volume of 200 μL per well. The test compounds were dissolved in DMSO and diluted with culture medium to different concentrations. After seeding for 24 h, the medium was removed, and […] of the test compound solution was added in duplicates and incubation continued for 72 h at 37 °C in a humidified atmosphere containing 5% CO2. Control cells were treated with vehicle alone. During the last 4 h of incubation, the cells were exposed to tetrazolium dye (MTT) solution (5 mg/mL, […] per well). The generated formazan crystals were dissolved in […] of dimethyl sulfoxide (DMSO), and the absorbance was read spectrophotometrically at 570 nm using an enzyme-linked immunosorbent assay plate reader. The data was calculated using Graph Pad Prism version 5.0 (GraphPad Softwrae, La Jolla, CA, USA). The IC50s were fitted using a non-linear regression model with a sigmoidal dose response.

[6] = Liver microsomes metabolic stability, mouse

In the case of `CC[C@H](C)[C@@H]([C@@H](CC(=O)N1CCC[C@H]1[C@H](OC)[C@@H](C)C(=O)N1CC(c2ccccc2)C1)OC)N(C)C(=O)[C@@H](NC(=O)C(C(C)C)N(C)C)C(C)C` (stereo in doubt) [1a, (S)-2-((R)-2-(Dimethylamino)-3-methylbutanamido)-N-((3R,4S,5S)-3-methoxy-1-((S)-2-((1R,2R)-1-methoxy-2-methyl-3-oxo-3-(3-phenylazetidin-1-yl)propyl)pyrrolidin-1-yl)-5-methyl-1-oxoheptan-4-yl)-N,3-dimethylbutanamide], the solubility ([1]; distilled water, pH 7.4, water) is reported as 0.346 mg/mL (≈ 485 µM), the “solubility (in words)” value ([1]; limited exploration of higher in vivo dosage) is reported as “poor solubility” and the Tumor volume ([2]; 1 mg/kg iv once a day, day 1) is reported as 149.56 mm3. The Relative tumor volume ([2]; 1 mg/kg iv once a day, day 4) was 1.27 ± 0.37, the Tumor volume ([2]; 1 mg/kg iv once a day, day 4) was 185.88 mm3 and the Relative tumor volume ([2]; 1 mg/kg iv once a day, day 7) was 1.65 ± 0.57. For the same molecule, the Tumor volume ([2]; 1 mg/kg iv once a day, day 7) was 248.97 mm3, the Relative tumor volume ([2]; 1 mg/kg iv once a day, day 10) was 2.29 ± 0.76 and the Tumor volume ([2]; 1 mg/kg iv once a day, day 10) was 341.75 mm3. For the same molecule, the Relative tumor volume ([2]; 1 mg/kg iv once a day, day 13) was 2.69 ± 0.9, the Tumor volume ([2]; 1 mg/kg iv once a day, day 13) was 395.43 mm3 and the Relative tumor volume ([2]; 1 mg/kg iv once a day, day 16) was 3.62 ± 1.05. For the same molecule, the Tumor volume ([2]; 1 mg/kg iv once a day, day 16) was 530.82 mm3, the Relative tumor volume ([2]; 1 mg/kg iv once a day, day 19) was 3.86 ± 1.34 and the Tumor volume ([2]; 1 mg/kg iv once a day, day 19) was 563.52 mm3. The Relative tumor volume ([2]; 1 mg/kg iv once a day, day 22) was 4.69 ± 1.74, the Tumor volume ([2]; 1 mg/kg iv once a day, day 22) was 662.64 mm3 and the Relative tumor volume ([2]; 2 mg/kg iv once a day, day 4) was 1.3 ± 0.22. For the same molecule, the Tumor volume ([2]; 2 mg/kg iv once a day, day 4) was 214.97 mm3, the Relative tumor volume ([2]; 2 mg/kg iv once a day, day 7) was 1.8 ± 0.31 and the Tumor volume ([2]; 2 mg/kg iv once a day, day 7) was 287.02 mm3. The Relative tumor volume ([2]; 2 mg/kg iv once a day, day 10) was 2.44 ± 0.46, the Tumor volume ([2]; 2 mg/kg iv once a day, day 10) was 381.31 mm3 and the Relative tumor volume ([2]; 2 mg/kg iv once a day, day 13) was 3.22 ± 0.6. It also gave a Tumor volume ([2]; 2 mg/kg iv once a day, day 13) of 508.66 mm3, a Relative tumor volume ([2]; 2 mg/kg iv once a day, day 16) of 4.34 ± 0.97 and a Tumor volume ([2]; 2 mg/kg iv once a day, day 16) of 682.39 mm3. The Relative tumor volume ([2]; 2 mg/kg iv once a day, day 19) was 5.15 ± 1.13, the Tumor volume ([2]; 2 mg/kg iv once a day, day 19) was 813.25 mm3 and the Relative tumor volume ([2]; 2 mg/kg iv once a day, day 22) was 5.5 ± 2.15. It also gave a Tumor volume ([2]; 2 mg/kg iv once a day, day 22) of 862.75 mm3, a Tumor volume ([2]; 5 mg/kg iv once a day, day 1) of 205.7 mm3 and a Relative tumor volume ([2]; 5 mg/kg iv once a day, day 4) of 1.37 ± 0.34. It also gave a Tumor volume ([2]; 5 mg/kg iv once a day, day 4) of 266.39 mm3, a Relative tumor volume ([2]; 5 mg/kg iv once a day, day 7) of 1.53 ± 0.41 and a Tumor volume ([2]; 5 mg/kg iv once a day, day 7) of 287.02 mm3. The Relative tumor volume ([2]; 5 mg/kg iv once a day, day 10) was 2.05 ± 0.62, the Tumor volume ([2]; 5 mg/kg iv once a day, day 10) was 380.17 mm3 and the Relative tumor volume ([2]; 5 mg/kg iv once a day, day 13) was 2.7 ± 0.88. It also gave a Tumor volume ([2]; 5 mg/kg iv once a day, day 13) of 487.47 mm3, a Relative tumor volume ([2]; 5 mg/kg iv once a day, day 16) of 2.97 ± 0.91 and a Tumor volume ([2]; 5 mg/kg iv once a day, day 16) of 554.26 mm3. It also gave a Relative tumor volume ([2]; 5 mg/kg iv once a day, day 19) of 3.51 ± 0.82, a Tumor volume ([2]; 5 mg/kg iv once a day, day 19) of 668.46 mm3 and a Relative tumor volume ([2]; 5 mg/kg iv once a day, day 22) of 4.19 ± 1.41. For the same molecule, the Tumor volume ([2]; 5 mg/kg iv once a day, day 22) was 789.59 mm3, the “toxicity and weight loss” value ([2]; 1, 2 and 5 mg/kg/day iv for 22 days, A549 xenograft mice) was “no overt toxicity and weight-loss; also recorded: did not show any severe toxicity” and the Clint ([3]; Human, apparent intrinsic clearance, 1 μM) was 5.576 L/h/kg. The half-life at 1 μM ([3]; human, microsomes) was 18.7 min, the Clint ([4]; Rat, apparent intrinsic clearance, 1 μM) was 15.727 L/h/kg and the half-life at 1 μM ([4]; rat, microsomes) was 9.48 min. The IC50 [5] was 2.1 ± 0.4 nM, the T1/2 ([6]; Mouse liver microsomes, metabolic stability, 1 μM) was “less than 2 min” and the Clint ([6]; Mouse, apparent intrinsic clearance, 1 μM) was 178.87 L/h/kg. It also gave a half-life at 1 μM ([6]; mouse, microsomes) of 1.83 min.
